Results reported in patent US10376558B2, “Method and compositions for synchronizing time of insemination in gilts” (UNITED-AH II, LLC, priority 2012, dated 2019).

Experiments:
Format in all cases: in vivo, swine
[1] = test system: gilts; assay: Example 5: ovulation monitoring by transrectal ultrasonography after 100, 200 or 400 mcg triptorelin gel at 120 h post-MATRIX; details: 400 mcg T (n = 6 catheterized gilts)
[2] = test system: gilts; assay: as above; details: for Percentage ovulated by 48 hours: after treatment; for Time at which ovulation detected: relative to time of triptorelin gel treatment, Least Squares Mean ± SE; for % of Sows Ovulating / Interval from MATRIX Withdrawal to Ovulation: raw average, PTK 2-07
Method: All gilts were individually fed MATRIX® as a top-dress for 14 or 15 days at the recommended rate of 15 mg/gilt/day. Gilts were withdrawn from MATRIX® feeding (last top-dress in the morning on Day 0) and allocated to each of the following treatments. Controls were vehicle gel treated (vehicle gel without triptorelin) at 120 (+/−2) hours following MATRIX® withdrawal (last top dress). The other gilts were given 100, 200 or 400 mcg triptorelin as the acetate in a methylcellulose gel formulation 120 (+/−2) hours following MATRIX® withdrawal. The four treatments were:
2. TG 100: 100 mcg (2 mL 50 mcg/mL) triptorelin gel at 120 (+/−2) hours after MATRIX® withdrawal.
3. TG 200: 200 mcg (2 mL 100 mcg/mL) triptorelin gel at 120 (+/−2) hours after MATRIX® withdrawal.
4. TG 400: 400 mcg (2 mL 200 mcg/mL) triptorelin gel at 120 (+/−2) hours after MATRIX® withdrawal.
Ovulation was monitored twice on Day 5 (8 hours and 16 hours post-treatment) and every 8 hours on Day 6 and Day 7 or until ovulation was confirmed or 176 hours following last MATRIX® feeding. The ovulatory status of all gilts was monitored by transrectal ultrasonography. An Aloka 500 ultrasound machine is used for this purpose, with a 7.5 MHz linear array transducer attached to a fixed-angle PVC stabilizing rod to facilitate insertion into the rectum. The transducer and PVC rod are coated with a gynecological lubricant and gently inserted into the rectum until the ovaries can be visualized, one at a time. The diameters of the three largest follicles were recorded (to the nearest 0.1 mm) at each scanning. A gilt was declared to have ovulated when the number of large follicles (≥6.5 mm) fell to less than 3.
A single 2 mL dose of triptorelin gel or vehicle gel was deposited within approximately 1-2 cm posterior to the cervix with a catheter similar to those used for artificial insemination. The dose was delivered using a standard multi-dose applicator attached to the catheter. A new disposable sheath, which surrounds the catheter, was used for each gilt.

[3] = test system: gilts; assay: Example 1: estrus detection after triptorelin gel at 96, 120 or 144 h after last MATRIX feeding; details: raw average, PTK 1-07 (rep 3); 200 mcg T at 120 h after MATRIX withdrawal
Method: All gilts were individually fed MATRIX® as a top-dress for 14 days at the recommended rate of 15 mg/gilt/day. Gilts were withdrawn from MATRIX® feeding (last top feed in the morning on Day 0) and allotted to treatments. Controls were treated with a 1.2% methylcellulose gel formulation without triptorelin at 96 hours following MATRIX® withdrawal (last top-dress). The remaining gilts received 200 mcg triptorelin, as the acetate, in a 1.2% methylcellulose gel formulation intravaginally at various times after MATRIX® withdrawal. The four treatments were: 1) vehicle gel (VG) treatment at 96 hours after MATRIX® withdrawal, 2) triptorelin gel (TG) treatment at 96 hours after MATRIX® withdrawal, 3) TG treatment at 120 hours after MATRIX® withdrawal and 4) TG treatment at 144 hours after MATRIX® withdrawal. All gilts were monitored for their estrous and ovulatory status as described below. Gilts included in replicate 1 were selected from terminal line commercial production gilts located in grow/finish barns. Sexual maturity, as indicated by one or more estrous periods, was not verified prior to the start of MATRIX® feeding. Gilts included in replicate 2 were selected from a maternal line gilt population. Sexual maturity was verified by at least one estrous period verified and recorded prior to starting MATRIX® feeding. […]
Data were analyzed using the Mixed Models procedures of SAS. […]

[4] = 100 mcg T (n = 6 catheterized gilts)
[5] = 200 mcg T (n = 7 catheterized gilts)

CC(C)C[C@H](NC(=O)[C@@H](Cc1c[nH]c2ccccc12)NC(=O)[C@H](Cc1ccc(O)cc1)NC(=O)[C@H](CO)NC(=O)[C@H](Cc1c[nH]c2ccccc12)NC(=O)[C@H](Cc1c[nH]cn1)NC(=O)[C@@H]1CCC(=O)N1)C(=O)N[C@@H](CCCNC(=N)N)C(=O)N1CCC[C@H]1C(=O)NCC(N)=O [T, pGlu-His-Trp-Ser-Tyr-D-Trp-Leu-Arg-Pro-Gly-NH2]
Percentage ovulated by 48 hours ([1]; after treatment): 100%
Time at which ovulation detected ([1]; relative to time of triptorelin gel treatment, Least Squares Mean ± SE): 40 ± 8 h
Percentage ovulated by 48 hours [2, 4]: 100%
Time at which ovulation detected [2, 4]: 40 ± 10 h
Percentage ovulated by 48 hours [2, 5]: 100%
Time at which ovulation detected [2, 5]: 34 ± 9 h
% of Sows Ovulating ([2]; 100 mcg T at 120 h, 128 h post-MATRIX, 8 h post-T): 0.0%
% of Sows Ovulating ([2]; 100 mcg T at 120 h, 136 h post-MATRIX, 16 h post-T): 5.0%
% of Sows Ovulating ([2]; 100 mcg T at 120 h, 144 h post-MATRIX, 24 h post-T): 20.0%
% of Sows Ovulating ([2]; 100 mcg T at 120 h, 152 h post-MATRIX, 32 h post-T): 30.0%
% of Sows Ovulating ([2]; 100 mcg T at 120 h, 160 h post-MATRIX, 40 h post-T): 60.0%
% of Sows Ovulating ([2]; 100 mcg T at 120 h, 168 h post-MATRIX, 48 h post-T): 95.0%
% of Sows Ovulating ([2]; 100 mcg T at 120 h, 176 h post-MATRIX, 56 h post-T): 100.0%
Interval from MATRIX Withdrawal to Ovulation ([2]; 100 mcg T at 120 h after MATRIX withdrawal): 159.2
% of Sows Ovulating ([2]; 200 mcg T at 120 h, 128 h post-MATRIX, 8 h post-T): 0.0%
% of Sows Ovulating ([2]; 200 mcg T at 120 h, 136 h post-MATRIX, 16 h post-T): 0.0%
% of Sows Ovulating ([2]; 200 mcg T at 120 h, 144 h post-MATRIX, 24 h post-T): 23.8%
% of Sows Ovulating ([2]; 200 mcg T at 120 h, 152 h post-MATRIX, 32 h post-T): 33.3%
% of Sows Ovulating ([2]; 200 mcg T at 120 h, 160 h post-MATRIX, 40 h post-T): 52.4%
% of Sows Ovulating ([2]; 200 mcg T at 120 h, 168 h post-MATRIX, 48 h post-T): 95.2%
% of Sows Ovulating ([2]; 200 mcg T at 120 h, 176 h post-MATRIX, 56 h post-T): 95.2%
Interval from MATRIX Withdrawal to Ovulation ([2]; 200 mcg T at 120 h after MATRIX withdrawal): 158.8
% of Sows Ovulating ([2]; 400 mcg T at 120 h, 128 h post-MATRIX, 8 h post-T): 4.5%
% of Sows Ovulating ([2]; 400 mcg T at 120 h, 136 h post-MATRIX, 16 h post-T): 9.1%
% of Sows Ovulating ([2]; 400 mcg T at 120 h, 144 h post-MATRIX, 24 h post-T): 22.7%
% of Sows Ovulating ([2]; 400 mcg T at 120 h, 152 h post-MATRIX, 32 h post-T): 36.4%
% of Sows Ovulating ([2]; 400 mcg T at 120 h, 160 h post-MATRIX, 40 h post-T): 63.6%
% of Sows Ovulating ([2]; 400 mcg T at 120 h, 168 h post-MATRIX, 48 h post-T): 100.0%
% of Sows Ovulating ([2]; 400 mcg T at 120 h, 176 h post-MATRIX, 56 h post-T): 100.0%
Interval from MATRIX Withdrawal to Ovulation ([2]; 400 mcg T at 120 h after MATRIX withdrawal): 157.1
Estrous Expression (%) [3]: 100.0%
Interval from MATRIX withdrawal to Estrus [3]: 129.6 h
